Here are results for one compound from patent US20250289827A1, “MORPHIC FORMS OF A MUTANT BRAF DEGRADER AND METHODS OF MANUFACTURE THEREOF” (C4 THERAPEUTICS, INC., priority 2022, published 2025).

The structures appear in SMILES notation. “Also recorded” adds a separate entry of the source.

In experiment [1] the test system is A2058 human melanoma xenografts. Put plainly: Efficacy and body weight in A2058 xenografts (Example 39). It is filed as in vivo. As for the experimental part:
Compound 1, encorafenib and dabrafenib were administered to BALB/c nude mice bearing A2058 xenografts orally for 28 days. Compound 1 was dosed twice per day (BID) and dosed at 10 mg/kg from day 0. Encorafenib and dabrafenib were dosed daily (QD) from day 1. Encorafenib was dosed at 35 mg/kg. Dabrafenib was dosed at 100 mg/kg.
Each mouse was inoculated subcutaneously at the right flank with A2058 cells (5×106) in 0.2 mL of PBS supplemented with Matrigel (PBS:Matrigel=1:1) for tumor development. Animals were grouped for efficacy study when the average tumor volume reached 130 mm^3 on day 7 after tumor inoculation and 412 mm^3 for PKPD study on day 14.
At the time of routine monitoring, the animals were checked daily for any effects of tumor growth and treatments on normal behavior such as mobility, food and water consumption (by looking only), body weight gain/loss (body weights were measured twice weekly), eye/hair matting and any other abnormal effect as stated in the protocol. Death and observed clinical signs were recorded on the basis of the numbers of animals within each subset.
Prior to the onset of drug treatment, mice were measured for tumor size in two dimensions using a caliper, and the tumor volume (mm^3) was calculated using formula V=0.5 a×b^2 where a and b are the long and short diameters of the tumor in mm, respectively. Mice were randomized into different treatment groups based on the tumor volume.
The major endpoint was to see if the tumor growth could be delayed or mice could be cured. The tumor size was then used for calculations of T/C value. The T/C value (in percent) is an indication of antitumor effectiveness; T and C are the mean volumes of the treated and control groups, respectively on specified day.
Tumor growth inhibition (TGI) was calculated for each group using the formula: TGI (%) 20=[1−(Ti−T0)/(Ci−C0)]×100; Ti is the average tumor volume of a treatment group on a given day, TO is the average tumor volume of the treatment group on the day of treatment start, Ci is the average tumor volume of the vehicle control group on the same day with Ti, and C0 is the average tumor volume of the vehicle group on the day of treatment start.
A one-way ANOVA followed by Dunnett's multiple comparison test was performed to compare tumor volume among vehicle group and treatment groups. All data were analyzed using GraphPad Prism, * indicates p<0.01, **** indicates p<0.0001 and ns indicates p>0.05.

A further experiment has as its system p-ERK. Put plainly: Western Blot of p-ERK and ERK in A2058 tumor. To be noted: single oral dose; Compound 1 10 mg/kg, encorafenib 35 mg/kg, dabrafenib 100 mg/kg. It is filed as in vivo, human. Here is the method:
For the PKPD study, agents were administered to BALB/c nude mice bearing A2058 human melanoma xenografts. Compound 1, encorafenib and dabrafenib were dosed once orally on day 1. Compound 1 was dosed at 10 mg/kg, encorafenib was dosed at 35 mg/kg and dabrafenib was dosed at 100 mg/kg.
Previously snap-frozen samples were retrieved from −80° C. ultralow freezer, and 30-100 mg of tumor tissue was cut up. The tissue samples were placed in a 2 mL microcentrifuge tube, and 450 μL of RIPA buffer containing 1% Protease inhibitor cocktail and 1% phosphate inhibitor cocktail 2 were added to the tube. Tumor samples were grinded with Tissuelyser at 50 Hz for five minutes, and the tissue lysates were kept on ice for thirty minutes. Tissue lysates were centrifuged at 15,000 rpm at 4° C. for ten minutes. The supernatants were gently transferred to a new microcentrifuge tube and kept of ice. Protein concentrations in the supernatants were measured using the Pierce™ BCA Protein Assay Kit. Based on the result of BCA protein quantification, the samples were diluted to the same final concentration of 4 μg/μL using RIPA buffer, 4×LDS sample buffer, and 10× sample reducing agent. Diluted samples were heated at 100° C. for ten minutes. Remaining denatured samples were used for western blot analysis or kept in the −80° C. ultralow freezer for long term storage.
Extracted protein samples (5 μL per slot) were loaded to NuPAGE® Novex 4-12% Bis-Tris gel. Electrophoresis was run with MES running buffer at 80 V for thirty minutes, and 120 V for ninety minutes. Protein samples were transferred to nitrocellulose (NC) membranes with iBlot® 2 Gel Transfer Device (P3, seven minutes). The membrane was cut and parts of interest were kept. The membrane was washed with 5 to 10 mL of 1×TBST once for five minutes. Non-specific protein was blocked by 5-10 mL of 1×TBST with 5% nonfat milk at room temperature for one hour. The membrane was washed with 5-10 mL 1×TBST three times for five minutes each. […] Samples were imaged, and chemiluminescence was detected by Amersham Imager 680.

In experiment [2] the test system is BRAF V600E mutant A375-luciferase intracranial model. Put plainly: Efficacy in A375-luciferase intracranial model. To be noted: for Survival rate: as of day 75.
Protocol: For the efficacy study, agents were tested in A375 human melanoma cancer cell derived xenografts (CDX). […] The A375 tumor cells were maintained in vitro in DMEM medium supplemented with 10% fetal bovine serum and 1% Penicillin-Streptomycin at 37° C. in an atmosphere of 5% CO2 in air. The tumor cells were routinely subcultured twice weekly. The cells growing in an exponential growth phase were harvested and counted for tumor inoculation.
For this CNS study, A375 cells with a luciferase tag for tracking tumor cell signal, were injected intracranially into 6-8 week old female BALB/c nude mice. […] The mice were anaesthetized, restrained, and sterilized prior to surgery. […] A 2 mm hole was created to the right of the anterior fontanel and 0.5 mm above the coronal on the skull with a cranial drill. Cell suspensions in 20% Matrigel were mixed and aspirated into the injector carefully to avoid bubbles and wiped to avoid extracranial tumorigenesis. The needle was inserted vertically into the cranial hole and the cell mixture was slowly injected for two minutes and held for another minute to decrease the drainage of the cell suspension. The wound was closed, and a subcutaneous injection of 5 mg/kg Meloxicam was given to relieve the pain and continued for three days. The mice were monitored closely until they woke up after the surgery. After inoculation, the animals were checked daily for morbidity and mortality.
The administration of the test agents began three days after inoculation. […] Measurements for the presence of the A375 luciferase signal within the CNS were done with IVIS Lumina III machine. Images were collected twice weekly to follow the growth of the models. The tumor-bearing mice were weighed and intraperitoneally administered luciferin (Perkin Elmer Inc-122799) at a dosage of 150 mg/kg. After ten minutes, mice were pre-anesthetized with the mixture gas of oxygen and isoflurane. The bioluminescence value at fifteen minutes post luciferin injection was recorded as the final value and plotted. The endpoint for individual mice was reached when the mouse body weight decreased by 20% when compared to their starting weight.
The luciferase signal for the mice removed from study were not carried forward, so a sudden drop in luciferase signal over time is due to mice with a heavy tumor burden being terminated and their high luciferase signal not being carried forward.
Setting [3] is: PG-D24, Compound 1 10 mg/kg BID, encorafenib 35 mg/kg QD, dabrafenib 100 mg/kg QD.

Usually T/C stands for the result in the treated group divided by that in the control group, in per cent. The TGI is how far tumour growth fell short of that in controls. For the compound `CCN(C)S(=O)(=O)Nc1ccc(F)c(Oc2ccc3ncn([C@H]4COC5(CCN(C(=O)CC6(O)CCN(c7cc8c(cc7F)c(N7CCC(=O)NC7=O)nn8C)CC6)CC5)C4)c(=O)c3c2)c1C#N` [Compound 1, (3R)-3-[6-[2-cyano-3-[[ethyl(methyl)sulfamoyl]amino]-6-fluorophenoxy]-4-oxoquinazolin-3-yl]-8-[2-[1-[3-(2,4-dioxo-1,3-diazinan-1-yl)-5-fluoro-1-methylindazol-6-yl]-4-hydroxypiperidin-4-yl]acetyl]-1-oxa-8-azaspiro[4.5]decane], the T/C was found to be 37.06% in experiment [1] (setting [3]); 37.06% in experiment [1] (PG-D24, treated / control average tumor volume, Compound 1 10 mg/kg p.o. BID, Encorafenib 35 mg/kg p.o. QD, Dabrafenib 100 mg/kg p.o. QD); 39.45% in experiment [1] (PG-D28, treated / control average tumor volume, Compound 1 10 mg/kg p.o. BID, Encorafenib 35 mg/kg p.o. QD, Dabrafenib 100 mg/kg p.o. QD). Besides, the TGI in experiment [1] (setting [3]) is reported as 66.37%; in experiment [1] (PG-D24, Compound 1 10 mg/kg p.o. BID, Encorafenib 35 mg/kg p.o. QD, Dabrafenib 100 mg/kg p.o. QD), 66.37%; in experiment [1] (PG-D28, Compound 1 10 mg/kg p.o. BID, Encorafenib 35 mg/kg p.o. QD, Dabrafenib 100 mg/kg p.o. QD) it was 63.41%. In addition, the “TV (mean tumor volume)” value in experiment [1] (setting [3]) is 933 mm^3. Moreover, the “Tumor Size on PG-D24” value in experiment [1] (PG-D24, Mean ± SEM, Compound 1 10 mg/kg p.o. BID, Encorafenib 35 mg/kg p.o. QD, Dabrafenib 100 mg/kg p.o. QD) was 933 ± 119 mm^3. In addition, the “Antitumor activity compared with vehicle group” value in experiment [1] (PG-D24, one-way ANOVA, Dunnett) is given as “significant antitumor activity”. Further, in experiment [1] (PG-D28, Mean ± SEM, Compound 1 10 mg/kg p.o. BID, Encorafenib 35 mg/kg p.o. QD, Dabrafenib 100 mg/kg p.o. QD), the “Tumor Size on PG-D28” value was determined as 1139 ± 153 mm^3. Moreover, the “Tumor Volume Trace over Time” value was 130 ± 4 mm^3 in experiment [1] (day 0 (baseline), Mean ± SEM, Compound 1 10 mg/kg p.o. BID × 28 days, Encorafenib 35 mg/kg p.o. QD × 28 days, Dabrafenib 100 mg/kg p.o. QD × 28 days); 167 ± 8 mm^3 in experiment [1] (day 3, Mean ± SEM, Compound 1 10 mg/kg p.o. BID, Encorafenib 35 mg/kg p.o. QD, Dabrafenib 100 mg/kg p.o. QD); 205 ± 12 mm^3 in experiment [1] (day 7, Mean ± SEM, Compound 1 10 mg/kg p.o. BID, Encorafenib 35 mg/kg p.o. QD, Dabrafenib 100 mg/kg p.o. QD); 267 ± 16 mm^3 in experiment [1] (day 10, Mean ± SEM, Compound 1 10 mg/kg p.o. BID, Encorafenib 35 mg/kg p.o. QD, Dabrafenib 100 mg/kg p.o. QD); 414 ± 38 mm^3 in experiment [1] (day 14, Mean ± SEM, Compound 1 10 mg/kg p.o. BID, Encorafenib 35 mg/kg p.o. QD, Dabrafenib 100 mg/kg p.o. QD); 562 ± 53 mm^3 in experiment [1] (day 17, Mean ± SEM, Compound 1 10 mg/kg p.o. BID, Encorafenib 35 mg/kg p.o. QD, Dabrafenib 100 mg/kg p.o. QD). For the same compound, the “Tumor Volume Trace over Time” value in experiment [1] (day 21, Mean ± SEM, Compound 1 10 mg/kg p.o. BID, Encorafenib 35 mg/kg p.o. QD, Dabrafenib 100 mg/kg p.o. QD) turned out to be 711 ± 79 mm^3; in experiment [1] (day 24, Mean ± SEM, Compound 1 10 mg/kg p.o. BID, Encorafenib 35 mg/kg p.o. QD, Dabrafenib 100 mg/kg p.o. QD) it was 933 ± 119 mm^3; in experiment [1] (day 28, Mean ± SEM, Compound 1 10 mg/kg p.o. BID, Encorafenib 35 mg/kg p.o. QD, Dabrafenib 100 mg/kg p.o. QD) it was 1139 ± 153 mm^3. The “Expression of p-ERK in A2058 tumor” value with p-ERK is recorded as “inhibited the expression of p-ERK from six to twenty-four hours post dose; also recorded: inhibited the expression of p-ERK from six hours to twenty-four hours post dose”. Moreover, the Survival rate in experiment [2] (10 mg/kg PO BID) is on record as 50%; in experiment [2] (30 mg/kg PO BID), 87.5%. Besides, the “Survival time compared to encorafenib” value in experiment [2] (intracranial melanoma tumors) was “significant increase in survival time”. The “Bioluminescence signal (tumor burden)” value in experiment [2] (relative to vehicle control or encorafenib treated mice) was “dramatically reduced the bioluminescence signal”.
